In paper PMC8400480, “Synthesis, Antibacterial and Pharmacokinetic Evaluation of Novel Derivatives of Harmine N^9-Cinnamic Acid” (Molecules, 2021):
Values after ≈ are worked out from the molar mass of the structure shown.

Experiments:
[1] = tested on: Escherichia coli CICC 10389 (E. coli); assay: MIC, microplate dilution method; format: cell-based; conditions: Gram-negative, Mueller-Hinton broth, 37 °C, 18–24 h, read-out: MIC E. coli
Source text: (§1) According to microplate dilution method, all the prepared compounds were screened for their in vitro antibacterial activity. The investigation included three representative Gram-positive strains, including Staphylococcus aureus CICC 10384 (S. aureus), Staphylococcus albus CICC 20237 (S. albus) and methicillinresistant Staphylococcus aureus ATCC 43300 (MRSA), and two representative Gram-negative strains, including Escherichia coli CICC 10389 (E. coli) and Pseudomonas aeruginosa CVCC 3359 (PA). Harmine and cinnamic acid were used as reference drugs.
(§2) The antibacterial efficiency of all prepared compounds was determined using the microplate dilution method. All compounds were prepared into different concentrations of stock solution according to their solubility. The compounds were added to the 96 well plate and serially diluted in Mueller-Hinton broth. Three Gram-positive strains (S. aureus, S. albus and MRSA) and two Gram-negative strains (E. coli and PA) were cultivated and added to the 96 well plate. The initial concentration of bacteria should be higher than 10^5 CFU/mL. The samples were incubated at 37 °C for 18–24 h. The MIC was determined for compounds by observing change of clarity in the broth. The same procedure was repeated in triplicate.

[2] = tested on: Pseudomonas aeruginosa CVCC 3359 (PA); assay: MIC, microplate dilution method; format: cell-based; conditions: Gram-negative, Mueller-Hinton broth, 37 °C, 18–24 h, read-out: MIC PA
Source text: as §1, §2

[3] = tested on: Staphylococcus albus CICC 20237 (S. albus); assay: MIC, microplate dilution method; format: cell-based; conditions: Gram-positive; Mueller-Hinton broth, 37 °C, 18–24 h; read-out: MIC S. albus
Source text: as §1, §2

[4] = tested on: Staphylococcus aureus CICC 10384 (S. aureus); assay: MIC, microplate dilution method; format: cell-based; conditions: Gram-positive, Mueller-Hinton broth, 37 °C, 18–24 h, read-out: MIC S. aureus
Source text: as §1, §2

[5] = tested on: methicillinresistant Staphylococcus aureus ATCC 43300 (MRSA); assay: MIC, microplate dilution method; format: cell-based; conditions: Gram-positive, Mueller-Hinton broth, 37 °C, 18–24 h, read-out: MIC MRSA
Source text: as §1, §2

[6] = tested on: S. aureus (CICC 10384); assay: Bactericidal time-kill kinetics; format: cell-based, Staphylococcus aureus
Experimental: The bacteria S. aureus was prepared in Muellere Hinton broth at 37 °C for 6 h with shaking. The solution of 3c (1 × MIC and 6 × MIC), 5a (1 × MIC and 6 × MIC), harmine (1 × MIC and 6 × MIC) and saline (served as a control group) were separately added to the bacterial suspension so that the final bacterial concentration were 10^6~10^7 CFU/mL. At the predetermined time point (0, 0.5, 2, 4, 6, 12 and 24 h), […] of aliquots were serially diluted in normal saline, plated on sterile Muellere Hinton agar plates, and incubated at 37 °C for 24 h. After incubation, the viable colonies were counted and represented as log10 (CFU/mL). The same procedure was repeated in triplicate.
Figure 3 Time-kill kinetics of compound 3c (A) and 5a (B) at 1 × and 6 × MIC against S. aureus (CICC 10384).

Row | Structure (SMILES) | MIC [1] | MIC [2] | MIC [3] | MIC [4] | MIC [5] | melting point | time to 4-log10 reduction ([6]; 1 × MIC) | time to completely kill the bacteria ([6]; 6 × MIC)
1 | O=C(O)/C=C/c1ccccc1 [Cinnamic acid] | 1120 µg/mL (≈ 7590 µM) | 1120 µg/mL (≈ 7590 µM) | 1120 µg/mL (≈ 7590 µM) | 1120 µg/mL (≈ 7590 µM) | 1120 µg/mL (≈ 7590 µM) |  |  | 
2 | COc1ccc(/C=C/C(=O)OCCCn2c3cc(OC)ccc3c3ccnc(C)c32)cc1 [Compound 3a, 3-(7-Methoxy-1-methyl-9H-pyridine [3,4-b]indole-9-yl)propyl(E)-3-(4-methoxyphenyl) acrylate] | 650 µg/mL (≈ 1510 µM) | 325 µg/mL (≈ 755 µM) | 650 µg/mL (≈ 1510 µM) | 325 µg/mL (≈ 755 µM) | 1300 µg/mL (≈ 3020 µM) | 133.2 to 133.9 °C |  | 
3 | COc1ccc2c3ccnc(C)c3n(CCCOC(=O)/C=C/c3cc(OC)c(OC)c(OC)c3)c2c1 [Compound 3b, 3-(7-Methoxy-1-methyl-9H-pyridine [3,4-b]indole-9-yl) propyl (E)-3-(3,4,5-trimethoxyphenyl) acrylate] | 638 µg/mL (≈ 1300 µM) | 319 µg/mL (≈ 650 µM) | 638 µg/mL (≈ 1300 µM) | 319 µg/mL (≈ 650 µM) | 638 µg/mL (≈ 1300 µM) | 102.6 to 104.2 °C |  | 
4 | COc1ccc2c3ccnc(C)c3n(CCCOC(=O)/C(=C/c3cc(OC)c(OC)c(OC)c3)c3ccc(OC)c(OC)c3)c2c1 [Compound 3d, 3-(7-Methoxy-1-methyl-9H-pyridine [3,4-b]indole-9-yl) propyl (E)-2-(3,4-dimethoxyphenyl)-3-(3,4,5-trimethoxyphenyl) acrylate] | 725 µg/mL (≈ 1160 µM) | 362 µg/mL (≈ 578 µM) | 725 µg/mL (≈ 1160 µM) | 181 µg/mL (≈ 289 µM) | 362 µg/mL (≈ 578 µM) | 173.6 to 175.2 °C |  | 
5 | COc1ccc(/C=C/C(=O)OCCCCn2c3cc(OC)ccc3c3ccnc(C)c32)cc1 [Compound 4a, 4-(7-Methoxy-1-methyl-9H-pyridine [3,4-b]indole-9-yl) butyl (E)-3-(4-methoxyphenyl) acrylate] | 152 µg/mL (≈ 343 µM) | 305 µg/mL (≈ 686 µM) | 305 µg/mL (≈ 686 µM) | 305 µg/mL (≈ 686 µM) | 610 µg/mL (≈ 1370 µM) | 118.7 to 120.2 °C |  | 
6 | COc1ccc2c3ccnc(C)c3n(CCCCOC(=O)/C=C/c3cc(OC)c(OC)c(OC)c3)c2c1 [Compound 4b, 4-(7-Methoxy-1-methyl-9H-pyridine [3,4-b]indole-9-yl) butyl (E)-3-(3,4,5-trimethoxyphenyl) acrylate] | 450 µg/mL (≈ 892 µM) | 450 µg/mL (≈ 892 µM) | 225 µg/mL (≈ 446 µM) | 112 µg/mL (≈ 223 µM) | 450 µg/mL (≈ 892 µM) | 95.7 to 96.3 °C |  | 
7 | COc1ccc2c3ccnc(C)c3n(CCCCOC(=O)/C=C/c3ccccc3[N+](=O)[O-])c2c1 [Compound 4c, 4-(7-Methoxy-1-methyl-9H-pyridine [3,4-b]indole-9-yl) butyl (E)-3-(2-nitrophenyl) acrylate] | 775 µg/mL (≈ 1690 µM) | 388 µg/mL (≈ 843 µM) | 1550 µg/mL (≈ 3370 µM) | 1550 µg/mL (≈ 3370 µM) | 1550 µg/mL (≈ 3370 µM) | 130.9 to 132.2 °C |  | 
8 | COc1ccc2c3ccnc(C)c3n(CCCCOC(=O)/C(=C/c3cc(OC)c(OC)c(OC)c3)c3ccc(OC)c(OC)c3)c2c1 [Compound 4d, 4-(7-Methoxy-1-methyl-9H-pyridine [3,4-b]indole-9-yl) butyl (E)-2-(3,4-dimethoxyphenyl)-3-(3,4,5-trimethoxyphenyl) acrylate] | 212 µg/mL (≈ 332 µM) | 212 µg/mL (≈ 332 µM) | 53.1 µg/mL (≈ 82.9 µM) | 26.6 µg/mL (≈ 41.5 µM) | 106 µg/mL (≈ 166 µM) | 95.7 to 97.4 °C |  | 
9 | COc1ccc(/C=C/C(=O)OCCCCCn2c3cc(OC)ccc3c3ccnc(C)c32)cc1 [Compound 5a, 5-(7-Methoxy-1-methyl-9H-pyridine [3,4-b]indole-9-yl) amyl (E)-3-(4-methoxyphenyl) acrylate] | 250 µg/mL (≈ 545 µM) | 125 µg/mL (≈ 273 µM) | 15.6 µg/mL (≈ 34.1 µM) | 15.6 µg/mL (≈ 34.1 µM) | 62.5 µg/mL (≈ 136 µM) | 91.1 to 92.3 °C | about 24 h | ≤ 12 h
10 | COc1ccc2c3ccnc(C)c3n(CCCCCOC(=O)/C=C/c3cc(OC)c(OC)c(OC)c3)c2c1 [Compound 5b, 5-(7-Methoxy-1-methyl-9H-pyridine [3,4-b]indole-9-yl) amyl (E)-3-(3,4,5-trimethoxyphenyl) acrylate] | 1140 µg/mL (≈ 2190 µM) | 1140 µg/mL (≈ 2190 µM) | 2280 µg/mL (≈ 4390 µM) | 1140 µg/mL (≈ 2190 µM) | 2280 µg/mL (≈ 4390 µM) | 103.7 to 104.7 °C |  | 
11 | COc1ccc2c3ccnc(C)c3n(CCCCCOC(=O)/C=C/c3ccccc3[N+](=O)[O-])c2c1 [Compound 5c, 5-(7-Methoxy-1-methyl-9H-pyridine [3,4-b]indole-9-yl) amyl (E)-3-(2-nitrophenyl) acrylate] | 220 µg/mL (≈ 465 µM) | 220 µg/mL (≈ 465 µM) | 110 µg/mL (≈ 232 µM) | 110 µg/mL (≈ 232 µM) | 220 µg/mL (≈ 465 µM) | 127.4 to 130 °C |  | 
12 | COc1ccc2c3ccnc(C)c3n(CCCCCOC(=O)/C(=C/c3cc(OC)c(OC)c(OC)c3)c3ccc(OC)c(OC)c3)c2c1 [Compound 5d, 5-(7-Methoxy-1-methyl-9H-pyridine [3,4-b]indole-9-yl) pentyl (E)-2-(3,4-dimethoxyphenyl)-3-(3,4,5-trimethoxyphenyl) acrylate] | 762 µg/mL (≈ 1160 µM) | 381 µg/mL (≈ 582 µM) | 95.3 µg/mL (≈ 146 µM) | 23.8 µg/mL (≈ 36.4 µM) | 95.3 µg/mL (≈ 146 µM) | 117.4 to 119.9 °C |  | 

Second part, led by results:

Row | MIC [1] | MIC [2] | MIC [3] | MIC [4] | MIC [5] | melting point | Structure (SMILES) | time to 4-log10 reduction ([6]; 1 × MIC) | time to completely kill the bacteria ([6]; 6 × MIC)
13 | 662 µg/mL (≈ 1400 µM) | 331 µg/mL (≈ 701 µM) | 166 µg/mL (≈ 350 µM) | 82.8 µg/mL (≈ 175 µM) | 331 µg/mL (≈ 701 µM) | 88.7 to 90.4 °C | COc1ccc(/C=C/C(=O)OCCCCCCn2c3cc(OC)ccc3c3ccnc(C)c32)cc1 [Compound 6a, 6-(7-Methoxy-1-methyl-9H-pyridine [3,4-b]indole-9-yl) hexyl (E)-3-(4-methoxyphenyl) acrylate] |  | 
14 | 305 µg/mL (≈ 573 µM) | 305 µg/mL (≈ 573 µM) | 152 µg/mL (≈ 286 µM) | 152 µg/mL (≈ 286 µM) | 306 µg/mL (≈ 574 µM) | 73.7 to 73.9 °C | COc1ccc2c3ccnc(C)c3n(CCCCCCOC(=O)/C=C/c3cc(OC)c(OC)c(OC)c3)c2c1 [Compound 6b, 6-(7-Methoxy-1-methyl-9H-pyridine [3,4-b]indole-9-yl) hexyl (E)-3-(3,4,5-trimethoxyphenyl) acrylate] |  | 
15 | 750 µg/mL (≈ 1540 µM) | 750 µg/mL (≈ 1540 µM) | 750 µg/mL (≈ 1540 µM) | 375 µg/mL (≈ 769 µM) | 1500 µg/mL (≈ 3080 µM) | 117.3 to 119.9 °C | COc1ccc2c3ccnc(C)c3n(CCCCCCOC(=O)/C=C/c3ccccc3[N+](=O)[O-])c2c1 [Compound 6c, 6-(7-Methoxy-1-methyl-9H-pyridine [3,4-b]indole-9-yl) hexyl(E)-3-(2-nitrophenyl) acrylate] |  | 
16 | 212 µg/mL (≈ 318 µM) | 212 µg/mL (≈ 318 µM) | 53.1 µg/mL (≈ 79.4 µM) | 53.1 µg/mL (≈ 79.4 µM) | 212 µg/mL (≈ 318 µM) | 113.1 to 115 °C | COc1ccc2c3ccnc(C)c3n(CCCCCCOC(=O)/C(=C/c3cc(OC)c(OC)c(OC)c3)c3ccc(OC)c(OC)c3)c2c1 [Compound 6d, 6-(7-Methoxy-1-methyl-9H-pyridine [3,4-b]indole-9-yl) hexyl (E)-2-(3,4-dimethoxyphenyl)-3– (3,4,5-trimethoxyphenyl) acrylate] |  | 
